Reference: paper PMC6446301, “Evaluation of therapeutic effects of FAK inhibition in murine models of atherosclerosis” (BMC Research Notes, 2019)

Key:
[1] = Clinical biochemistry markers in serum, intervention trial LDLr KO mice; type: in vivo, mouse; settings: Intervention (8 + 8 weeks), mean ± SEM
Description: (§1) To assess the therapeutic effect of FAK inhibition, the following three different designs were applied: prevention (1) and therapeutic intervention (2) in apoE KO mice, and therapeutic intervention (3) in LDLr KO mice. The prevention trial consisted of 8-week concurrent treatment with the HF/HC diet following 1 week of pre-loading of the HF/HC diet (Additional file 3: Figure S2A). The therapeutic intervention trial consisted of 6- and 8-week treatment after 6- and 8-week pre-loading of the HF/HC diet in apoE KO and LDLr KO mice, respectively (Additional file 3: Figure S2B). Body weight and food intake were measured once weekly. The mice were euthanized under terminal inhalation anesthesia with isoflurane followed by blood collection from abdominal vein.
(§2) Atherosclerotic lesion area was evaluated in the aorta by en face analysis (Additional file 4: Figure S3A) and in aortic root by cross-sectional analysis (Additional file 4: Figure S3B). The aorta was subjected to Sudan IV staining, and total area of the plaque lesion (TAOL) and area of whole aorta from arch without the region of brachiocephalic artery to common iliac artery (AOWA) were measured using the Definiens imaging software. Area of lesion (%) was calculated by the following formula; Area of lesion (%) = TAOL/AOWA × 100. After en face analysis, the aorta was washed and then blotted dry, weighed, minced, and total lipid was extracted with chloroform/methanol. Total and free cholesterol levels in the aortic extracts were determined with an enzymatic colorimetric assay (Wako Pure Chemical Industries Ltd.). Cross sections were cut at 5 μm thickness and 6 serial sections were collected every 50 μm along the aortic root. Lesion area analysis was made on the cross sections subjected to hematoxylin and eosin (HE) staining. Three representative sections derived from 3 segments were quantified per mouse. Lesion area values from the 3 sections were summed up. Histological features using serial cross sections were subjected to staining for EvG and anti Mac-3 antigen. Clinical biochemistry markers in serum was evaluated using DRICHEM 7000 (FUJIFILM Medical, Japan). Statistical comparison of control and compound 12-treated groups was carried out with a Mann–Whitney test (two-tailed) using GraphPad Prism.
(§3) Data are mean ± SEM. *; P < 0.05, **; P < 0.01 ***; P < 0.001 as compared with the control.

apoE KO mice [2] = assay: Atherosclerosis prevention trial in apoE KO mice; type: in vivo, mouse
Description: (§4) The mutant male mice, apoE KO (B6.129P2-Apoe^tm1Unc/J) and LDLr KO (B6.129S7-Ldlr^tm1Her/J) at the age of 7 weeks, were purchased from Charles River Laboratories, and acclimated to the facility for 7 days. The mice were housed at 25 °C with a 12:12 h light–dark cycle, and food and water were provided ad libitum. The HF/HC diet D12108 containing 1.25% cholesterol and 20% fat was purchased from Research Diets. A selective small molecule FAK inhibitor Compound 12 (Additional file 1: Figure S1; a 2-phenylamino-pyrimidin-4-ylamino-2,3-dihydro-isoindol-1-one derivative) was administrated as food admixture at a concentration of 0.03%. Compound 12 has an IC50 of 6 nM on FAK and no activity on insulin receptor kinase, insulin-like growth factor 1 receptor kinase, cyclin-dependent kinase 1 and Src (Additional file 2: Table S1) as described by Kawahara et al.).
as §1, §2

[3] = tested on: IGF-1R (insulin-like growth factor 1 receptor kinase); settings: cited from earlier work
[4] = Clinical biochemistry markers in serum, prevention trial apoE KO mice; type: in vivo, mouse; settings: Prevention (8 weeks), mean ± SEM
Description: as §1, §2, §3

FAK = settings: cited from earlier work
[5] = tested on: IRK (insulin receptor kinase); settings: cited from earlier work
apoE KO mice [6] = assay: Atherosclerosis therapeutic intervention trial in apoE KO mice; type: in vivo, mouse
Description: as §4, §1, §2

[7] = Clinical biochemistry markers in serum, intervention trial apoE KO mice; type: in vivo, mouse; settings: Intervention (6 + 6 weeks), mean ± SEM
Description: as §1, §2, §3

[8] = tested on: CDK1 (cyclin-dependent kinase 1); settings: cited from earlier work
LDLr KO mice = assay: Atherosclerosis therapeutic intervention trial in LDLr KO mice; type: in vivo, mouse; settings: 0.03% food admixture
Description: as §4, §1, §2

c-Src = settings: cited from earlier work
[9] = means, radiolabeled ATP, DELFIA or TR-FRET method
[10] = therapeutic intervention, 0.03% food admixture

COc1ccc(Nc2ncc(Cl)c(Nc3ccc(N4CCC(N5CCN(C)CC5)CC4)c4c3C(=O)N(C)C4)n2)c(OC)c1 [Compound 12, 7-[5-Chloro-2-(2,4-dimethoxy-phenylamino)-pyrimidin-4-ylamino]-2-methyl-4-[4-(4-methyl-piperazin-1-yl)-piperidin-1-yl]-2,3-dihydro-isoindol-1-one]
ALB [1]: 2.2 ± 0.05 g/dL | ALP [1]: 406 ± 34^** U/L | ALT [1]: 24 ± 1.6^** U/L | AST [1]: 97 ± 8.0 U/L | BUN [1]: 32 ± 1.2 mg/dL | CPK [1]: 196 ± 76^** U/L | CRE [1]: 0.3 ± 0.02^*** mg/dL | LDH [1]: 295 ± 38 U/L | T-BIL [1]: 0.6 ± 0.05 mg/dL | T-Chol [1]: 714 ± 51^*** mg/dL | TG [1]: 273 ± 21 mg/dL | body weight change (apoE KO mice [2]; 0.03% food admixture): no remarkable changes | food intake (apoE KO mice [2]; 0.03% food admixture): no remarkable changes | tolerability (apoE KO mice [2]; 0.03% food admixture): generally well tolerated | histological features of atherosclerotic plaques (HE, EvG, anti Mac-3) (apoE KO mice [2]; 8 weeks, 0.03% food admixture): foam cell rich, reduced fibrous and lipid core regions | reduction of lesion area of the aorta (en face analysis) vs control (apoE KO mice [2]; 8 weeks, 0.03% food admixture with HF/HC diet): 41.2% | cholesterol content in aorta (apoE KO mice [2]; 8 weeks, 0.03% food admixture, P < 0.01 vs control): significantly reduced | lesion area of aortic root (cross-sectional analysis) (apoE KO mice [2]; 8 weeks, 0.03% food admixture, P < 0.05 vs control): significantly reduced | lesion area of the aorta (en face analysis, TAOL/AOWA x 100) (apoE KO mice [2]; 8 weeks, 0.03% food admixture, control 8.92%): 5.24% | activity on insulin-like growth factor 1 receptor kinase [3]: no activity | IC50 [3, 9]: > 10 µM | ALB [4]: 2.2 ± 0.07^* g/dL | ALP [4]: 554 ± 31^** U/L | ALT [4]: 25 ± 1.6 U/L | AST [4]: 115 ± 15 U/L | BUN [4]: 41 ± 2.5 mg/dL | CPK [4]: 700 ± 362 U/L | CRE [4]: 0.3 ± 0.02^*** mg/dL | Glc [4]: 167 ± 16 mg/dL | Insulin [4]: 751 ± 109 pg/mL | LDH [4]: 535 ± 47^** U/L | T-BIL [4]: 0.5 ± 0.03 mg/dL | T-Chol [4]: 1,221 ± 102^* mg/dL | TG [4]: 94 ± 8.4^* mg/dL | IC50 (FAK): 0.006 µM | activity on insulin receptor kinase [5]: no activity | IC50 [5, 9]: > 3.3 µM | lesion area of aortic root (cross-sectional analysis) (apoE KO mice [6]; intervention 6 + 6 weeks, 0.03% food admixture): appeared to be reduced | cholesterol content in aorta (apoE KO mice [6]; intervention 6 + 6 weeks, 0.03% food admixture, P < 0.05 vs control): significantly reduced | lesion area of the aorta (en face analysis) (apoE KO mice [6]; intervention 6 + 6 weeks, 0.03% food admixture, normalized to Control at 6 weeks, control at 12 weeks 8.03%): 4.75% | change of lesion area (mm^2) of aortic root vs control (apoE KO mice [6]; intervention 6 + 6 weeks, 0.03% food admixture, printed in Fig. 2e): -15% | reduction of lesion area of the aorta (en face analysis) vs control (apoE KO mice [6]; intervention, 6 + 6 weeks, 0.03% food admixture with HF/HC diet): 40.9% | body weight change (apoE KO mice [6]; [10]): no remarkable changes | food intake (apoE KO mice [6]; [10]): no remarkable changes | tolerability (apoE KO mice [6]; [10]): generally well tolerated | ALB [7]: 2.3 ± 0.04 g/dL | ALP [7]: 469 ± 37^*** U/L | ALT [7]: 26 ± 1.3 U/L | AST [7]: 108 ± 7.0 U/L | BUN [7]: 42 ± 2.5 mg/dL | CPK [7]: 227 ± 48 U/L | CRE [7]: 0.3 ± 0.02^*** mg/dL | LDH [7]: 590 ± 36^* U/L | T-BIL [7]: 0.5 ± 0.05 mg/dL | T-Chol [7]: 1,016 ± 53^* mg/dL | TG [7]: 93 ± 6.7^** mg/dL | activity on cyclin-dependent kinase 1 [8]: no activity | IC50 [8, 9]: > 10 µM | cholesterol content in aorta (LDLr KO mice; intervention 8 + 8 weeks, P < 0.01 vs control): significantly reduced | lesion area of the aorta (en face analysis) (LDLr KO mice; intervention 8 + 8 weeks, normalized to Control at 8 weeks, control at 16 weeks 8.51%): 5.83% | body weight change (LDLr KO mice; therapeutic intervention): no remarkable changes | food intake (LDLr KO mice; therapeutic intervention): no remarkable changes | tolerability (LDLr KO mice; therapeutic intervention): generally well tolerated | activity on Src (c-Src): no activity | IC50 (c-Src; [9]): > 10 µM
